Assay results from patent publication US20210255184A1, “Biosensor Device and Methods” (The New Zealand Institute for Plant and Food Research …, priority 2018, published 2021).
“Also recorded” adds a separate entry of the source.

Assays:
Assay type in all cases: biochemical
Or10a = biological target: T1, Or10a (Drosophila melanogaster, UniProt Q9VYZ1); assay: QCM-D sensor, Or10a liposomes; conditions: 1.6 to 1000 μM in PBS with 1% DMSO
T1 construct: his-tag; made in house; host or cells: baculovirus-infected Sf9 cells
T1 sequence (Q9VYZ1 1-406): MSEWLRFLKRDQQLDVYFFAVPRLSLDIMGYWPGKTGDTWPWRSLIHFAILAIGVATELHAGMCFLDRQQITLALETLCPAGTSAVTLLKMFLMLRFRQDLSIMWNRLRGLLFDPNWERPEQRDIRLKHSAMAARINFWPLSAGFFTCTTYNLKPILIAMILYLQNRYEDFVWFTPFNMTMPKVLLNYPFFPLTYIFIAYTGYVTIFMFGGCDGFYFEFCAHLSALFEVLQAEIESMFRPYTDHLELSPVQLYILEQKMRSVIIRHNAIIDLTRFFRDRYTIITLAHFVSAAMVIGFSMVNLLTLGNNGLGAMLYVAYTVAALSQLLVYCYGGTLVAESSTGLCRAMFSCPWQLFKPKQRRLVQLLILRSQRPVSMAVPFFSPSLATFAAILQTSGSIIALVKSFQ
Experimental: (§1) Gold (100 nm) sensor crystals were sonicated in ethanol and milli-Q water for 15 minutes each respectively. A 5:1:1 volume ratio of milli-Q water, ammonia (25%), and hydrogen peroxide (30%) was heated to 75° C. for 5 minutes and the sonicated crystals were placed in the heated solution for 5 minutes. Then the crystals were removed from the solution and rinsed with milli-Q water before drying with nitrogen gas. The clean gold crystals were thiol-functionalized by exposing them to 2 mM ethanolic solution of MHA overnight followed by washing with ethanol solution in order to remove excess or loosely bound molecules. NHS/EDC was prepared using 2:1 mol:mol ratio of EDC:NHS (100 mM EDC, 50 mM NHS) in 2 ml PBS (pH=6.5) solution. Each OrX/liposome stock solution was diluted 100 fold for QCM-D measurements in PBS buffer solution (pH=7.4). The SAM functionalized crystals were then placed into the Q-sense analyser instrument (Biolin Scientific) chamber and flowed with the NHS/EDC, Or10a/liposomes or Or10a/Orco liposomes, and various concentrations of methyl hexanoate (1.6 μM, 8 μM, 20 μM, 40 μM, 100 μM, 200 μM, 500 μM and 1000 μM) in PBS buffer solution containing 1% DMSO to measure the changes in frequency (Δf) and dissipation (ΔD) values.

Or10a/Orco = biological target: T2, Or10a/Orco (Drosophila melanogaster, UniProt Q9VYZ1); assay: QCM-D sensor, Or10a/Orco liposomes; conditions: 1.6 to 1000 μM in PBS with 1% DMSO
T2 construct: his-tag; made in house; host or cells: baculovirus-infected Sf9 cells
T2 sequence (Q9VYZ1 1-406): T1 sequence (Q9VYZ1 1-406)
T2 sequence (Q9VNB5 1-486 partner): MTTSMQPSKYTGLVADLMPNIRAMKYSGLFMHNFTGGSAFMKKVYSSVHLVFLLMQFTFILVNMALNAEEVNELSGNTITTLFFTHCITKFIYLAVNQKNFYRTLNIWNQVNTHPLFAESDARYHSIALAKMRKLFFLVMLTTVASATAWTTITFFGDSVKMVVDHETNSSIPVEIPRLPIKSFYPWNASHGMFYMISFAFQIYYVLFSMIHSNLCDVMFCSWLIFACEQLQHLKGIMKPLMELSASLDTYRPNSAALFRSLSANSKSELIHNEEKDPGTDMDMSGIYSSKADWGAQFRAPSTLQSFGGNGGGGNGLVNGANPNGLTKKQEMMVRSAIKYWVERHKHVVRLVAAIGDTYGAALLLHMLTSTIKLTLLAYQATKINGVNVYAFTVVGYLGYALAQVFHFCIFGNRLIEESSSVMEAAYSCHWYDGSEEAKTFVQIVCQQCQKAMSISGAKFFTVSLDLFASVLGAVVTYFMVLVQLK
Experimental: as §1

[1] = GFET sensor, empty liposomes (control)
Experimental: (§2) The OR liposomes were functionalised onto the graphene surface via a non-covalent route using PBASE as the molecular linker as shown in FIG. 13. The OR liposomes were diluted at 1:10 ratio with 1×PBS (pH7.4). The cleaned GFETs were immersed in 1 mM PBASE solution in methanol for 1 hour. The devices were washed three times in methanol and subsequently washed three times in 1×PBS to remove the excess PBASE and residual methanol in the channel respectively. The OR liposomes were diluted 1:10 with 1×PBS (pH 7.4) and 100 μL of the OR dilution was placed in the graphene channel and incubated at room temperature for one hour in a closed petri dish. After OR liposome functionalization, the devices were washed in 1×PBS for 10 s before measurements.
(§3) The OR liposome immobilised GFET device with a PDMS well mounted on it was placed onto the probe station and the source and drain connections were made by micromanipulators. 100 μl of PBS containing 1% dimethyl sulfoxide (DMSO) was added to the well and the Ag/AgCl standard electrode was placed into the buffer. The stock solution of ligands at 100 mM concentrations were prepared by dissolving them in DMSO as they are not stable in aqueous buffer. The stock solution was stored at 4° C. The ligand solution for sensing was prepared by diluting the stock solution in 1×PBS buffer containing 1% DMSO to set concentrations from 10 fM to 100 pM. […]

Orco = biological target: T3, Orco (Drosophila melanogaster, UniProt Q9VNB5); assay: GFET sensor, Orco liposomes (control); conditions: Orco only liposomes
T3 construct: his-tag; made in house; host or cells: baculovirus-infected Sf9 cells
T3 sequence (Q9VNB5 1-486): T2 sequence (Q9VNB5 1-486 partner)
Experimental: as §2, §3

Row | Compound | change in oscillation frequency on ligand exposure (Or10a) | change in oscillation frequency on ligand exposure (Or10a/Orco) | sensor response to target ligand [1] | sensor response to target ligand (Orco)
1 | COC(=O)c1ccccc1O [methyl salicylate] | increase in the frequency | greater response; also recorded: increase in the frequency | lack of response | lack of response
2 | CCCCCC(=O)OC [methyl hexanoate] | negligible response; also recorded: not observed | negligible response; also recorded: not observed | lack of response | lack of response
